Assay results published in BigSolDB 2.1.

O=C1C2C3C=CC(C3)C2C(=O)N1O (stereo not drawn)
solubility (mole fraction) (in 1,4-dioxane, 288.15 K): 0.0796
solubility (mole fraction) (in 1,4-dioxane, 293.15 K): 0.0879
solubility (mole fraction) (in 1,4-dioxane, 298.15 K): 0.0963
solubility (mole fraction) (in 1,4-dioxane, 303.15 K): 0.107
solubility (mole fraction) (in 1,4-dioxane, 308.15 K): 0.115
solubility (mole fraction) (in 1,4-dioxane, 313.15 K): 0.128
solubility (mole fraction) (in 1,4-dioxane, 318.15 K): 0.138
solubility (mole fraction) (in 1,4-dioxane, 323.15 K): 0.153
solubility (mole fraction) (in 2-butoxyethanol, 278.15 K): 0.035
solubility (mole fraction) (in 2-butoxyethanol, 283.15 K): 0.0408
solubility (mole fraction) (in 2-butoxyethanol, 288.15 K): 0.0458
solubility (mole fraction) (in 2-butoxyethanol, 293.15 K): 0.0536
solubility (mole fraction) (in 2-butoxyethanol, 298.15 K): 0.0601
solubility (mole fraction) (in 2-butoxyethanol, 303.15 K): 0.068
solubility (mole fraction) (in 2-butoxyethanol, 308.15 K): 0.077
solubility (mole fraction) (in 2-butoxyethanol, 313.15 K): 0.087
solubility (mole fraction) (in 2-butoxyethanol, 318.15 K): 0.0989
solubility (mole fraction) (in 2-butoxyethanol, 323.15 K): 0.11
solubility (mole fraction) (in 2-ethoxyethanol, 278.15 K): 0.0699
solubility (mole fraction) (in 2-ethoxyethanol, 283.15 K): 0.0774
solubility (mole fraction) (in 2-ethoxyethanol, 288.15 K): 0.0856
solubility (mole fraction) (in 2-ethoxyethanol, 293.15 K): 0.093
solubility (mole fraction) (in 2-ethoxyethanol, 298.15 K): 0.101
solubility (mole fraction) (in 2-ethoxyethanol, 303.15 K): 0.112
solubility (mole fraction) (in 2-ethoxyethanol, 308.15 K): 0.121
solubility (mole fraction) (in 2-ethoxyethanol, 313.15 K): 0.132
solubility (mole fraction) (in 2-ethoxyethanol, 318.15 K): 0.144
solubility (mole fraction) (in 2-ethoxyethanol, 323.15 K): 0.158
solubility (mole fraction) (in 2-methoxyethanol, 278.15 K): 0.106
solubility (mole fraction) (in 2-methoxyethanol, 283.15 K): 0.115
solubility (mole fraction) (in 2-methoxyethanol, 288.15 K): 0.122
solubility (mole fraction) (in 2-methoxyethanol, 293.15 K): 0.131
solubility (mole fraction) (in 2-methoxyethanol, 298.15 K): 0.141
solubility (mole fraction) (in 2-methoxyethanol, 303.15 K): 0.154
solubility (mole fraction) (in 2-methoxyethanol, 308.15 K): 0.164
solubility (mole fraction) (in 2-methoxyethanol, 313.15 K): 0.179
solubility (mole fraction) (in 2-methoxyethanol, 318.15 K): 0.188
solubility (mole fraction) (in 2-methoxyethanol, 323.15 K): 0.205
solubility (mole fraction) (in 2-propoxyethanol, 278.15 K): 0.0446
solubility (mole fraction) (in 2-propoxyethanol, 283.15 K): 0.0502
solubility (mole fraction) (in 2-propoxyethanol, 288.15 K): 0.0566
solubility (mole fraction) (in 2-propoxyethanol, 293.15 K): 0.0645
solubility (mole fraction) (in 2-propoxyethanol, 298.15 K): 0.0718
solubility (mole fraction) (in 2-propoxyethanol, 303.15 K): 0.0804
solubility (mole fraction) (in 2-propoxyethanol, 308.15 K): 0.0896
solubility (mole fraction) (in 2-propoxyethanol, 313.15 K): 0.0998
solubility (mole fraction) (in 2-propoxyethanol, 318.15 K): 0.112
solubility (mole fraction) (in 2-propoxyethanol, 323.15 K): 0.123
solubility (mole fraction) (in acetone, 278.15 K): 0.0266
solubility (mole fraction) (in acetone, 283.15 K): 0.0317
solubility (mole fraction) (in acetone, 288.15 K): 0.0374
solubility (mole fraction) (in acetone, 293.15 K): 0.0447
solubility (mole fraction) (in acetone, 298.15 K): 0.052
solubility (mole fraction) (in acetone, 303.15 K): 0.0606
solubility (mole fraction) (in acetone, 308.15 K): 0.0706
solubility (mole fraction) (in acetone, 313.15 K): 0.0817
solubility (mole fraction) (in acetone, 318.15 K): 0.0938
solubility (mole fraction) (in acetone, 323.15 K): 0.108
solubility (mole fraction) (in acetonitrile, 278.15 K): 0.0165
solubility (mole fraction) (in acetonitrile, 283.15 K): 0.0201
solubility (mole fraction) (in acetonitrile, 288.15 K): 0.0223
solubility (mole fraction) (in acetonitrile, 293.15 K): 0.0258
solubility (mole fraction) (in acetonitrile, 298.15 K): 0.0298
solubility (mole fraction) (in acetonitrile, 303.15 K): 0.034
solubility (mole fraction) (in acetonitrile, 308.15 K): 0.0387
solubility (mole fraction) (in acetonitrile, 313.15 K): 0.0443
solubility (mole fraction) (in acetonitrile, 318.15 K): 0.0505
solubility (mole fraction) (in acetonitrile, 323.15 K): 0.0587
solubility (mole fraction) (in ethanol, 278.15 K): 0.0303
solubility (mole fraction) (in ethanol, 283.15 K): 0.0352
solubility (mole fraction) (in ethanol, 288.15 K): 0.042
solubility (mole fraction) (in ethanol, 293.15 K): 0.051
solubility (mole fraction) (in ethanol, 298.15 K): 0.0592
solubility (mole fraction) (in ethanol, 303.15 K): 0.0703
solubility (mole fraction) (in ethanol, 308.15 K): 0.082
solubility (mole fraction) (in ethanol, 313.15 K): 0.0969
solubility (mole fraction) (in ethanol, 318.15 K): 0.112
solubility (mole fraction) (in ethanol, 323.15 K): 0.131
solubility (mole fraction) (in ethyl acetate, 278.15 K): 0.00721
solubility (mole fraction) (in ethyl acetate, 283.15 K): 0.00912
solubility (mole fraction) (in ethyl acetate, 288.15 K): 0.0112
solubility (mole fraction) (in ethyl acetate, 293.15 K): 0.0134
solubility (mole fraction) (in ethyl acetate, 298.15 K): 0.0156
solubility (mole fraction) (in ethyl acetate, 303.15 K): 0.0192
solubility (mole fraction) (in ethyl acetate, 308.15 K): 0.0229
solubility (mole fraction) (in ethyl acetate, 313.15 K): 0.0271
solubility (mole fraction) (in ethyl acetate, 318.15 K): 0.0323
solubility (mole fraction) (in ethyl acetate, 323.15 K): 0.0373
solubility (mole fraction) (in isopropanol, 278.15 K): 0.0197
solubility (mole fraction) (in isopropanol, 283.15 K): 0.0238
solubility (mole fraction) (in isopropanol, 288.15 K): 0.0287
solubility (mole fraction) (in isopropanol, 293.15 K): 0.0338
solubility (mole fraction) (in isopropanol, 298.15 K): 0.0403
solubility (mole fraction) (in isopropanol, 303.15 K): 0.0495
solubility (mole fraction) (in isopropanol, 308.15 K): 0.0577
solubility (mole fraction) (in isopropanol, 313.15 K): 0.0672
solubility (mole fraction) (in isopropanol, 318.15 K): 0.0774
solubility (mole fraction) (in isopropanol, 323.15 K): 0.089
solubility (mole fraction) (in methanol, 278.15 K): 0.0706
solubility (mole fraction) (in methanol, 283.15 K): 0.0796
solubility (mole fraction) (in methanol, 288.15 K): 0.0896
solubility (mole fraction) (in methanol, 293.15 K): 0.102
solubility (mole fraction) (in methanol, 298.15 K): 0.111
solubility (mole fraction) (in methanol, 303.15 K): 0.128
solubility (mole fraction) (in methanol, 308.15 K): 0.138
solubility (mole fraction) (in methanol, 313.15 K): 0.151
solubility (mole fraction) (in methanol, 318.15 K): 0.167
solubility (mole fraction) (in methanol, 323.15 K): 0.181
solubility (mole fraction) (in n-propanol, 278.15 K): 0.0192
solubility (mole fraction) (in n-propanol, 283.15 K): 0.0231
solubility (mole fraction) (in n-propanol, 288.15 K): 0.0274
solubility (mole fraction) (in n-propanol, 293.15 K): 0.034
solubility (mole fraction) (in n-propanol, 298.15 K): 0.0401
solubility (mole fraction) (in n-propanol, 303.15 K): 0.0488
solubility (mole fraction) (in n-propanol, 308.15 K): 0.0572
solubility (mole fraction) (in n-propanol, 313.15 K): 0.0651
solubility (mole fraction) (in n-propanol, 318.15 K): 0.0744
solubility (mole fraction) (in n-propanol, 323.15 K): 0.0885
